Source: PubChem BioAssay (NCI)
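Where inhibition never reached the appropriate level, the endpoint shown equals the highest concentration tested. Otherwise, values were interpolated linearly from a five-concentration, 48-hour dose response in 96-well plates. GI50 = concentration required for 50% inhibition of growth. TGI: total growth inhibition.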

How the values were obtained:
Assay in all cases: DTP human tumour cell line panel, 48 h
UACC-62 melanoma = tested on: UACC-62 melanoma
MDA-MB-435 = tested on: MDA-MB-435
DU-145 prostate = tested on: DU-145 prostate
HOP-62 NSCLC = tested on: HOP-62 NSCLC
HS 578T breast = tested on: HS 578T breast
SK-OV-3 ovarian = tested on: SK-OV-3 ovarian
NCI-H226 lung = tested on: NCI-H226 lung
NCI-H522 lung = tested on: NCI-H522 lung
UO-31 renal = tested on: UO-31 renal
HCT-15 colon = tested on: HCT-15 colon

SMILES | TGI (UACC-62 melanoma) | TGI (MDA-MB-435) | TGI (DU-145 prostate) | TGI (HOP-62 NSCLC) | TGI (HS 578T breast) | TGI (SK-OV-3 ovarian) | TGI (NCI-H226 lung) | TGI (NCI-H522 lung) | TGI (UO-31 renal) | TGI (HCT-15 colon) | GI50 (UACC-62 melanoma) | GI50 (MDA-MB-435) | GI50 (DU-145 prostate) | GI50 (HOP-62 NSCLC) | GI50 (SK-OV-3 ovarian) | GI50 (NCI-H226 lung) | GI50 (NCI-H522 lung) | GI50 (UO-31 renal) | GI50 (HCT-15 colon)
CN(C)C(=S)SCc1ccccc1 | > 100 µM | > 100 µM | > 100 µM | > 100 µM | > 100 µM | > 100 µM | > 100 µM | > 100 µM | > 100 µM | > 100 µM | – | – | – | – | – | – | – | – | –
CCC(C)(C)c1ccc(Oc2cccc(C(=O)O)c2)cc1 | > 100 µM | > 100 µM | > 100 µM | > 100 µM | > 100 µM | > 100 µM | > 100 µM | 89.9 µM | > 100 µM | > 100 µM | – | – | – | – | – | – | – | – | –
C/C(=C\c1ccc2c(c1)OCO2)[N+](=O)[O-] | 4.83 µM | 5.34 µM | 8.05 µM | > 100 µM | 45.8 µM | – | 28.6 µM | 3.21 µM | – | 5.21 µM | – | – | – | – | – | – | – | – | –
CCOC(=O)c1cc(Cl)ccc1OC(N)=O | > 100 µM | – | – | > 100 µM | – | > 100 µM | > 100 µM | – | > 100 µM | > 100 µM | – | – | – | – | – | – | – | – | –
C(=N/Nc1ccccn1)/c1cccnc1 | > 100 µM | > 100 µM | > 100 µM | > 100 µM | > 100 µM | > 100 µM | > 100 µM | > 100 µM | > 100 µM | > 100 µM | – | – | – | – | – | – | – | – | –
Cc1cccc(C(O)c2ccccn2)c1O (stereo not given) | > 100 µM | > 100 µM | > 100 µM | > 100 µM | > 100 µM | – | > 100 µM | > 100 µM | > 100 µM | > 100 µM | – | – | – | – | – | – | – | – | –
Nc1nc(Cl)nc2c1ncn2C1CCC(CO)O1 (stereo not given) | > 100 µM | > 100 µM | > 100 µM | > 100 µM | > 100 µM | > 100 µM | > 100 µM | – | > 100 µM | > 100 µM | – | – | – | – | – | – | – | – | –
Clc1ccc(CSCc2ccc(Cl)cc2Cl)c(Cl)c1 | > 100 µM | > 100 µM | > 100 µM | > 100 µM | > 100 µM | > 100 µM | > 100 µM | 74 µM | > 100 µM | > 100 µM | – | – | – | – | – | – | – | – | –
N#CC(C#N)=Cc1ccc(-c2ccc(-c3nc4ccccc4s3)cc2)s1 | 30.7 µM | 64.5 µM | 44.8 µM | 34.2 µM | – | 50.5 µM | 36.8 µM | 54 µM | 30.2 µM | 40 µM | 15.1 µM | 25.5 µM | 17.7 µM | 13 µM | 19.7 µM | 14.7 µM | 19.4 µM | 13.9 µM | 15.5 µM
CC1=C/C(=C(/c2ccc(O)c(C)c2)c2ccccc2C(=O)O)C=CC1=O | 30.9 µM | 33.3 µM | 35.6 µM | 38 µM | 52 µM | 35.1 µM | 44.5 µM | 42.7 µM | 33.6 µM | 42.7 µM | – | – | – | – | – | – | – | – | –
